{"source": "patent US8445527B2", "about": "“Organic compounds and their uses” (Novartis AG, priority 2006, dated 2013)", "origin": "cited, not measured here", "tested_on": "HCV", "conditions": "ribavirin alone", "data": [{"smiles": "NC(=O)c1ncn([C@@H]2O[C@H](CO)[C@@H](O)[C@H]2O)n1", "note": "[Ribavirin, 1-β-D-ribofuranosyl-1-1,2,4-triazole-3-caroxamide]", "values": [{"measurement": "patients in whom serum amino transferase levels are reduced to normal", "result": 40, "unit": "%"}, {"measurement": "serum levels of HCV-RNA", "result": "does not lower"}]}]}
